These results are taken from patent US20230233569A1 (Revolution Medicines, Inc., priority 2020, published 2023).

Like-named read-outs stand apart in the source and are kept apart here.

Holding throughout (assay type): cell-based
The subject of experiment [1] is AsPC-1 (K-Ras G12D). Kind of experiment: Potency assay: pERK. The conditions noted are these: Homo sapiens.
Experiment [2] deals with AsPC-1 (K-Ras G12D). Kind of experiment: CellTiter-Glo cell viability assay. Particulars: Homo sapiens, ASPC1, 120 h. The method, boiled down: (§1)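 Luminescence from CellTiter-Glo serves as the viability read-out after cells are treated with compound for 5 days. Each well's signal is divided by the DMSO average and multiplied by 100, and curves are fitted by four-parameter logistic regression.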

Another experiment relates to NCI-H358 (K-Ras G12C). Kind of experiment: CellTiter-Glo cell viability assay. The conditions noted are these: Homo sapiens, NCI-H358, 120 h. The procedure, abridged:
as §1
Background: ATP-based viability assays read luminescence as a measure of living cells.

Where [3] appears, read: read-out: AsPC-1 Cell Viability assay data IC50, K-Ras G12D, 5-day treatment.
[4] abbreviates: read-out: H358 Cell Viability assay data IC50, K-Ras G12C, 5-day treatment.
Setting [5] is: ASPC1, AsPC-1 KRAS G12D, read-out: pERK EC50.
Setting [6] is: K-Ras G12D, 5-day treatment, read-out: AsPC-1 Cell Viability assay data IC50.
Setting [7] is: K-Ras G12C, 5-day treatment, read-out: H358 Cell Viability assay data IC50.

In general, EC50 refers to the concentration needed to bring the measured effect to its halfway point. As a reminder, the IC50 is the concentration that gives 50% inhibition. Regarding `CCn1c(-c2cnccc2COC)c2c3cc(ccc31)-c1cc(O)cc(c1)C[C@H](NC(=O)[C@H](C(C)C)N(C)C(=O)CN(C)C(=O)[C@H]1CN1)C(=O)N1CCC[C@H](N1)C(=O)OCC(C)(C)C2` [Example 7], the EC50 in the experiment with AsPC-1 (K-Ras G12D) [1] (ASPC1, read-out: pERK EC50) was under 5000 nM. Also, the values for the IC50 in the experiment with AsPC-1 (K-Ras G12D) [2] (setting [3]) and with NCI-H358 (K-Ras G12C) (setting [4]) were 100 to 1000 nM and 10 to 100 nM, respectively.
With `CCn1c(-c2cnccc2COC)c2c3cc(ccc31)-c1cc(O)cc(c1)C[C@H](NC(=O)[C@H](C(C)C)N(C)C(=O)CN(C)C(=O)[C@@H]1CN1)C(=O)N1CCC[C@H](N1)C(=O)OCC(C)(C)C2` [Example 8], the EC50 in the experiment on AsPC-1 (K-Ras G12D) [1] (ASPC1, read-out: pERK EC50) was under 5000 nM. Besides, the IC50 with AsPC-1 (K-Ras G12D) [2] (setting [3]) lay within 1000 to 10000 nM; in the experiment on NCI-H358 (K-Ras G12C) (setting [4]) it was 10 to 100 nM.
On to `CCn1c(-c2cnccc2COC)c2c3cc(ccc31)-c1cc(O)cc(c1)C[C@H](NC(=O)[C@H](C(C)C)N(C)C(=O)CN(C)C(=O)[C@H]1CN1Cc1ccccc1)C(=O)N1CCC[C@H](N1)C(=O)OCC(C)(C)C2` (stereo partly drawn) [Example 9], for which, in the experiment on AsPC-1 (K-Ras G12D) [1] (ASPC1, read-out: pERK EC50), the EC50 is under 5000 nM. Also, the results for the IC50 in the experiment with AsPC-1 (K-Ras G12D) [2] (setting [3]) and in the experiment with NCI-H358 (K-Ras G12C) (setting [4]) were 1000 to 10000 nM and 10 to 100 nM, respectively.
In the case of `CCn1c(-c2cnccc2COC)c2c3cc(ccc31)-c1cc(O)cc(c1)C[C@H](NC(=O)[C@H](C(C)C)N(C)C(=O)CN(C)C(=O)[C@@H]1CN1Cc1ccccc1)C(=O)N1CCC[C@H](N1)C(=O)OCC(C)(C)C2` (stereo partly drawn) [Example 10], in the experiment with AsPC-1 (K-Ras G12D) [1] (ASPC1, read-out: pERK EC50), the EC50 is under 5000 nM. In addition, the IC50 with AsPC-1 (K-Ras G12D) [2] (setting [3]) was 1000 to 10000 nM; in the experiment on NCI-H358 (K-Ras G12C) (setting [4]) it was 10 to 100 nM.
In the same order, the values of `CCn1c(-c2cnccc2COC)c2c3cc(ccc31)-c1cc(O)cc(c1)C[C@H](NC(=O)[C@H](C(C)C)N(C)C(=O)CN(C)C(=O)[C@@H]1N[C@H]1c1ccccc1)C(=O)N1CCC[C@H](N1)C(=O)OCC(C)(C)C2` [Example 11] are under 5000 nM, 1000 to 10000 nM and 100 to 1000 nM.
In the same order, the values of `CCn1c(-c2cnccc2COC)c2c3cc(ccc31)-c1cc(O)cc(c1)C[C@H](NC(=O)[C@H](C(C)C)N(C)C(=O)CN(C)C(=O)[C@H]1N[C@@H]1c1ccccc1)C(=O)N1CCC[C@H](N1)C(=O)OCC(C)(C)C2` [Example 12] are under 5000 nM, 100 to 1000 nM and 100 to 1000 nM.
Turning to `CCn1c(-c2cnccc2COC)c2c3cc(ccc31)-c1cc(O)cc(c1)C[C@H](NC(=O)[C@H](C(C)C)N(C)C(=O)CN(C)C(=O)[C@@H]1N[C@@H]1C1CC1)C(=O)N1CCC[C@H](N1)C(=O)OCC(C)(C)C2` [Example 103], the EC50 in the experiment with AsPC-1 (K-Ras G12D) [1] (ASPC1, read-out: pERK EC50) is under 5000 nM. The IC50 in the experiment on AsPC-1 (K-Ras G12D) [2] (setting [3]) and in the experiment on NCI-H358 (K-Ras G12C) (setting [4]) was 100 to 1000 nM each time.
On to `CCC(C)N(C)C(=O)c1cncc(-c2c3c4cc(ccc4n2CC)-c2cc(O)cc(c2)C[C@H](NC(=O)[C@H](C(C)C)N(C)C(=O)CN(C)C(=O)[C@H]2CN2)C(=O)N2CCC[C@H](N2)C(=O)OCC(C)(C)C3)c1` (stereo partly drawn) [Example 144], for which the EC50 in the experiment with AsPC-1 (K-Ras G12D) [1] (ASPC1, read-out: pERK EC50) is under 5000 nM. Also, the IC50 in the experiment with AsPC-1 (K-Ras G12D) [2] (setting [3]) was in the range of 100 to 1000 nM; with NCI-H358 (K-Ras G12C) (setting [4]) it was 10 to 100 nM.
`CCn1c(-c2cccnc2[C@H](C)OC)c2c3cc(ccc31)-c1cc(O)cc(c1)C[C@H](NC(=O)[C@H](C(C)C)N(C)C(=O)[C@@]1(C)CCCN1C(=O)[C@H]1CN1)C(=O)N1CCC[C@H](N1)C(=O)OCC(C)(C)C2` [Example 239]: in the experiment on AsPC-1 (K-Ras G12D) [1] (setting [5]), the EC50 is under 5000 nM. Further, the IC50 in the experiment with AsPC-1 (K-Ras G12D) [2] (setting [6]) lay in the range of 100 to 1000 nM; in the experiment on NCI-H358 (K-Ras G12C) (setting [7]), 10 to 100 nM.
In the same order, the values of `CCn1c(-c2cccnc2[C@H](C)OC)c2c3cc(ccc31)-c1cc(O)cc(c1)C[C@H](NC(=O)[C@H](C(C)C)N(C)C(=O)[C@]1(C)CCCN1C(=O)[C@H]1CN1)C(=O)N1CCC[C@H](N1)C(=O)OCC(C)(C)C2` [Example 243] are under 5000 nM, 100 to 1000 nM and 100 to 1000 nM.
Turning to `CCn1c(-c2cccnc2[C@H](C)OC)c2c3cc(ccc31)-c1cc(O)cc(c1)C[C@H](NC(=O)[C@H](C(C)C)N(C)C(=O)[C@@H]1CO[C@H](C)CN1C(=O)[C@H]1CN1)C(=O)N1CCC[C@H](N1)C(=O)OCC(C)(C)C2` [Example 248], the EC50 in the experiment on AsPC-1 (K-Ras G12D) [1] (setting [5]) was under 5000 nM. Besides, the IC50 is 100 to 1000 nM in the experiment on AsPC-1 (K-Ras G12D) [2] (setting [6]) and 10 to 100 nM in the experiment with NCI-H358 (K-Ras G12C) (setting [7]).
